Measured values taken from publication PMC5663982, “Imaging the Antistaphylococcal Activity of CATH-2: Mechanism of Attack and Regulation of Inflammatory Response” (mSphere, 2017).

Biological target: T1, CATH-2 (chicken cathelicidin-2) (Gallus gallus, UniProt Q2IAL7)
T1 construct: gene CATHL2; Fmoc synthesis, unlabelled; cut from the cathelicidin-2 precursor
T1 sequence (Q2IAL7 128-153): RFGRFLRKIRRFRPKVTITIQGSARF
Assay: isothermal titration calorimetry
Type: binding
Conditions: PBS, 1.5% ethanol, 20 °C; 400 µM CATH-2 titrated into 200 µM cardiolipin (Sigma-Aldrich, source and acyl chains not told); n = 2, SEM; lipid suspension
Text: isothermal titration calorimetry on CATH-2 (chicken cathelicidin-2)

## cardiolipin
  Kd: 72.1 ± 57.1 nM
